Consider 88 compounds from a melting point compilation (Tetko et al.; mined from patent text by program, amines drawn as free bases though some values may be those of a salt).

As to `CCCCCCNC(=O)c1cnc2cccc(C)n2c1=O`, the melting point was in the range of 116 to 118 °C. `CCCCc1ncc(CC(=O)N[C@@H](Cc2ccccc2)C(=O)O)n1Cc1ccccc1Cl` yielded a melting point of 168 to 170 °C. For `O=P1(c2ccccc2)c2ccccc2CN1c1ccc(Br)cc1` (stereo not drawn) the value was 200 to 202 °C; for `CC(=NOC(=O)N(C)C)C1=CCCN(C)C1`, 54 to 55 °C. Consider `COc1ccc(C(=O)c2ccc(OC)c([N+](=O)[O-])c2)cc1[N+](=O)[O-]`, for which the melting point was 189 to 190 °C.

Regarding `CCOC(=O)C1=C(C)NC(C)=C(C(=O)OC)C1c1ccccc1Cl` (stereo not drawn), the melting point lay in the range of 125 to 127 °C.

Regarding `COc1ccc(/C=C(\C#N)c2c(F)c(F)c(F)c(F)c2F)cc1OC1CCCC1`, the melting point is 94.5 to 96 °C. The compound `CCOC(=O)c1cccc(-n2c(C)nc3cnccc32)c1` returned a melting point of 120 to 121 °C. For `O=C(CCCCOc1ccc(C2=NCCO2)cc1)c1ccc(Cl)s1`, the melting point lay in the range of 143 to 144 °C. The value for `CCOC(=O)CC1=C(O)c2sccc2S(=O)(=O)N1C` was 161 to 163 °C; that for `COc1ncccc1OCC(O)CNC(C)C` (stereo not drawn) was 50 to 65 °C; that for `O=C1C(=O)c2ccccc2C2=C1SCC1(CCC(NC(=O)c3cccc(C(F)(F)F)c3)CC1)O2` (stereo not drawn) was 266 to 267 °C. For `COc1ccc(C(CC(=O)O)N2C(=O)C3C=C(Cl)C(Cl)=C(Cl)C3(Cl)C2=O)cc1` (stereo not drawn) the value was 236 to 238 °C. Compound `COc1cc(C(=O)OCc2ccccc2)ccc1S(=O)(=O)Cl` came in with a melting point of 72 °C. Turning to `CCCNC(=O)CCCc1ccc2c(c1)c(Cc1ccc(C(=O)OC)cc1OC)cn2CCC`, the melting point amounted to 100 °C. Regarding `CC(C)(C)OC(=O)Nc1ccc2ccc(C#N)cc2c1Br`, the melting point fell in the range of 139 to 141 °C. For `CC12CC3OC3CC1CCC1C2CCC2(C)C(O)C(N3CCC4(CC3)OCCO4)CC12` (stereo not drawn) the value was 186 to 188 °C.

Turning to `O=C(NC(=O)c1cccnc1)NC1CCN(Cc2ccc3ncccc3c2)CC1`, the melting point was 196 to 198 °C. For the compound `COc1cc(OCCCN2CCc3cc(OC)c(OC)cc3C2)ccc1NC(=O)c1cccc2c(=O)c3cccc(F)c3[nH]c12`, the melting point is 152 °C.

`CC(C)(C)OC(=O)NC[C@H](O)[C@@H](O)[C@H](O)[C@H](O)CO` showed a melting point of 81 to 83 °C.

In turn, `Cc1noc(C)c1COc1ccc(C(=O)O)c(O)c1` displayed a melting point of 201 to 203 °C. The value for `CCOC(=O)NC(=S)CNc1ccc(C(=O)OC)c(S(=O)(=O)NC(=O)Nc2nc(OC)cc(OC)n2)c1` was 144 to 145 °C.

In turn, `Cn1cc(-c2ccccc2)c(=O)c(-c2cccc(O)c2)c1` displayed a melting point of 223 to 225 °C. The value for `CC(C)(C)SC(=O)C=CC1C(C(=O)OC(C#N)c2ccc(F)c(Oc3ccccc3)c2)C1(C)C` (stereo not drawn) was 96 °C; that for `O=c1cc(Nc2ccccc2)[nH]n1-c1ccc(S(=O)(=O)O)cc1` was 290 to 291 °C; that for `O=C(Nc1ccc(CCCc2nnn[nH]2)cc1)C(F)(F)C(F)(F)C(F)(F)F` was 144 to 145 °C. The value for `NC1=Nc2ccc(-c3cccc(Cl)c3)cc2C12CCCCC2` was 118 to 120 °C; that for `CC1=NC(NC(=O)Nc2cccc(C)c2)C(=O)N(CC(=O)C2CCCCC2)c2c(C)cccc21` (stereo not drawn) was 179 to 181 °C; that for `CCOC(=O)Cn1c(=O)n(S(=O)(=O)c2ccc(Cl)cc2)c(=O)c2ccccc21` was 208 to 209 °C. The value for `OCCCCc1cn(C(c2ccccc2)(c2ccccc2)c2ccccc2)cn1` was 144 to 146 °C; that for `CCCCCCCCCCC/C=C\c1c[nH]c(C(=O)O)c1` was 157 to 158 °C. As for `CCOc1ccc(C2=NN(CCCCCCBr)C(=O)[C@H]3CCCC[C@@H]23)cc1OCC` (relative stereo), the melting point fell in the range of 47 to 51 °C. `CCOC(=O)c1cccc2nc(C(C)C)n(Cc3ccc(-c4ccccc4-c4nnn[nH]4)cc3)c12` registered a melting point of 144 to 146 °C. As for `FC(F)(F)c1ccc(CC(=Nc2ccccc2)NC(=S)NCc2cccnc2)cc1`, the melting point lay in the range of 165 to 166 °C.

Turning to `O=C(O)CCCCCOc1ccc([N+](=O)[O-])cc1`, the melting point was in the range of 104 to 107 °C. For `CCN(CC)C(=O)c1cc(-c2ccccc2)c2ccccc2c1OC` the value was 102 to 103 °C.

For the compound `NC1=NN(c2ccccc2)C(c2ccccc2)C1` (stereo not drawn), the melting point is 195 to 197 °C. For `COc1ccc(-c2nsc(SN)n2)cc1` the value was 136 to 139 °C; for `CN(C)CCc1cccc(N2C(=O)N(c3c(Cl)cccc3Cl)Cc3cnc(Nc4ccccc4)nc32)c1`, 101 to 105 °C. The value for `O=C(NC1CCNC1=O)c1cccc(-c2cccc3oc(Cc4cccc(C(F)(F)F)c4)cc23)c1` (stereo not drawn) was 110 to 120 °C.

Compound `Cc1cc(-c2ccccc2)n2nc(C(F)(F)F)c(C#N)c2n1` displayed a melting point of 143 to 148 °C. For `Cc1ccc(C=Cc2ccc(Br)cc2)cc1`, the melting point amounted to 215 °C.

For the compound `O=C1OCc2c1cccc2[N+](=O)[O-]`, the melting point was 134 to 136 °C.

In turn, `CC(=O)OC1=C(CCCCCCCCC[Si](C)(C)C)C(=O)c2ccccc2C1=O` gave a melting point of 45 to 47 °C. The value for `COC(=O)Nc1ccccc1CS(=O)c1ncc(C(F)(F)F)cc1Cl` (stereo not drawn) was 160 to 162 °C; that for `CCN(CC)C(=O)c1ccc2ccccc2c1-c1ccccc1F` was 137 to 140 °C; that for `O=C(O)CCC(O)c1ccc(-c2ccc(F)cc2Cl)cc1` (stereo not drawn) was 78 to 79 °C. For `Cc1ccc(C)c(Oc2ccc(C#N)cc2S(=O)(=O)N2CCNCC2)c1` the value was 60 to 72 °C. On to `CC(=O)NC[C@H]1CN(c2ccc(N3CCC(C#N)(Nc4ccc(C#N)cc4)CC3)c(F)c2)C(=O)O1`, for which the melting point fell in the range of 210 to 212 °C. For `CCOC(=O)c1ccc(NC(C)=O)c(CC(O)CO)c1` (stereo not drawn) the value was 114 to 116 °C; for `COC1CCc2c(cc(-c3ccccc3)n2-c2ccc(O)cc2)C1` (stereo not drawn), 174 to 175 °C.

`CCn1c(C)c(C2(N(c3ccccc3)c3ccccc3)OC(=O)c3nccnc32)c2ccccc21` (stereo not drawn) yielded a melting point of 98 to 100 °C.

`Cn1c(CNCC(C)(C)C)cc2cc(NC(=O)c3ccc(C#CC4(O)CC4)cc3)ccc21` returned a melting point of 173 °C. Compound `C/C(=C\CCl)n1ncc(-c2ccc(S(N)(=O)=O)cc2)c(-c2ccc(F)cc2)c1=O` displayed a melting point of 152 to 154 °C. The value for `COC(=O)c1ccc(COC(=O)Nc2ccc(-c3ccccc3)n(CC(=O)NC(Cc3ccccc3)C(=O)C(F)(F)F)c2=O)cc1` (stereo not drawn) was 186 to 189 °C; that for `O=C(O)C1(c2ccc(I)cc2)CC1` was 150 to 152 °C.

For the compound `CC(=O)N(CCCCC(=O)O)C(c1ccccc1)c1ccccc1`, the melting point is 135 to 136 °C. `Cc1nc(N2CCN(CC3CC3)C2=O)sc1C(=O)NCc1ncccc1F` registered a melting point of 142 to 144 °C. As to `Cc1ccc(NC(=O)NCc2cccc3c2C(=O)N(C2CCC(=O)NC2=O)C3=O)cc1C` (stereo not drawn), the melting point is 222 to 224 °C. The value for `CCCOc1ccc(CCCOc2nn(C)cc2CC(=O)O)c(Oc2ncc(C(F)(F)F)cc2Cl)c1` was 95 to 96 °C; that for `COC1CC(OC)(OC)C(=O)O1` (stereo not drawn) was 55 °C; that for `O=S1(=O)c2cccc3cccc(c23)N1CCN1CC=C(c2ccccc2)CC1` was 106 °C.

In turn, `C=CC(=O)Oc1ccc(NS(=O)(=O)CC)cc1` gave a melting point of 99 to 100 °C. Take `CC12CCC3C(CCC4CC(I)CCC43C)C1CCC2=O` (stereo not drawn): the melting point fell in the range of 123 to 125 °C.

Regarding `CCC(CC)Nc1nc(N)nc(C(C)(C)F)n1`, the melting point was 104 to 106 °C. The value for `CCOC(=O)c1cccc(-c2ccc3c(c2)N(C(=O)Cc2cccc(C(F)(F)F)c2)CC3)c1` was 222 to 223 °C; that for `CC(=O)NCC1CC1c1ccc(Cl)c2nn(C)cc12` (stereo not drawn) was 153 to 155 °C. For `NC(=O)c1c(C(=O)O)cnn1-c1ccc(Br)cc1` the value was 251 to 252 °C. Compound `Nc1ncc(I)cc1[N+](=O)[O-]` came in with a melting point of 213 to 215 °C. As to `O=C(O)CCCc1cc2nc(Cl)ccc2n1S(=O)(=O)c1ccc2c(c1)OC(F)(F)O2`, the melting point was determined as 216 °C. The value for `COc1ccc(Cc2sccc2OC2OC(CO)C(O)C(O)C2O)cc1` (stereo not drawn) was 154 to 155 °C. The value for `C#CCCOc1ccc(C=O)cc1OC` was 101 to 102 °C; that for `CC(C)C(NS(=O)(=O)c1ccccc1)C(=O)NOCc1ccccc1` (stereo not drawn) was 163 to 165 °C. The value for `CON(C)C(=O)c1ccc(F)cc1` was 9 °C; that for `O=S(=O)(Nc1ccccc1COc1cccc2cccnc12)c1cccc(C(F)(F)F)c1` was 120 to 121 °C. The compound `COC(=O)c1ccc2c(c1)C(=O)CC(C)(COc1ccc([N+](=O)[O-])cc1)O2` (stereo not drawn) registered a melting point of 144 to 145 °C.

Regarding `Cc1ccsc1-c1nc(CCl)co1`, the melting point lay in the range of 95 to 96 °C. The value for `CCOC(=O)c1cn(-c2nc(F)c(F)c(NC(C)(C)C)c2F)c2c(Cl)c(F)c(F)cc2c1=O` was 145 to 146 °C; that for `CNc1nc(Cl)nc2cc(OC)c(OC)cc12` was 216 to 217 °C. For `CC(C)C(Br)C(=O)NCC(=O)O` (stereo not drawn) the value was 138 to 139 °C; for `CCOC(=O)C=Cc1cc(C=CC(=O)OCC)cc(Cc2cccnc2)c1`, 94 to 96 °C; for `CC(=O)OCC1OC(n2c(Cl)nc3cc(Br)c(Br)cc32)C(OC(C)=O)C1OC(C)=O` (stereo not drawn), 140 to 142 °C. As for `CN(C)CCSCc1c(CCN(C)C)[nH]c2ccccc12`, the melting point was in the range of 52 to 54 °C. For `COCCN(CC1=CCC(Oc2ccccc2)([N+](=O)[O-])C=C1)C(=O)C(Cl)Cl` (stereo not drawn) the value was 116 to 117 °C; for `COc1cc2c(cc1N1CCN(CC3=CC4=CSCC4=C3)CC1)OCC2`, 156 to 158 °C; for `O=C1CCC(N2C(=O)c3cccc(OCc4ccc(Cl)c(Cl)c4)c3C2=O)C(=O)N1` (stereo not drawn), 245 to 247 °C. In the case of `COC(=O)[C@H]1NC(=O)[C@H]1N` (relative stereo), the melting point was 59 to 61 °C. With `O=[N+]([O-])c1ccccc1Nc1ccc(I)cc1`, the melting point lay in the range of 171 to 172 °C.
